Measured values published in paper PMC7672424 (Nucleic Acids Research, 2020).

Key:
TTA45 [1] = experiment: CD melting, DNA stabilization; type: binding, human; settings: 5 µM DNA, 20 µM compound, 10 mM Tris-HCl, 50 mM KCl, pH 7.4
From the text: Compounds Structures IC /µM m

Duplex = experiment: CD melting, DNA stabilization; type: binding; settings: 5 µM DNA (19AT), 20 µM BMPQ-1, 10 mM Tris-HCl, 50 mM KCl, pH 7.4
Experimental: Figure S2. Normalized CD thermal melting curves of DNAs in the absence or presence of BMPQ-1 under K+ conditions. (A) TTA69, (B) TTA45, (C) TTA, (D) c-KIT1, (E) TBA, (F) duplex DNA 19AT. The DNA concentration was 5 µM, and BMPQ-1 was 10 µM or 20 µM. All measurements were carried out in the buffer with 10 mM Tris-HCl (pH 7.4), 50 mM KCl. […]

A549 cells [2] = experiment: Annexin V-FITC/PI apoptosis detection; type: cell-based, human; settings: A549, 3 μM, 24 h
Experimental: The A549 cells treated with BMPQ-1 or DMSO were washed twice with PBS and detected using the annexin V-FITC/PI apoptosis detection kit (DOJINDO, Japan). The cells were pelleted and resuspended in the binding buffer. Annexin V-FITC and PI were added, and the cells were disturbed by gently vortexing the samples prior to incubation for 5 min in the dark. Emitted florescence was quantitated by flow cytometry (BD FacsAria, USA). For each analysis, 2.0 × 10^4 events were collected.
Figure S10. BMPQ-1 induced cell apoptosis of A549. (A) Apoptosis evaluation of A549 cells after 24 h treatment with various concentrations of BMPQ-1. The cells were collected and stained with Annexin V–FITC and PI. Region LL represents the viable cells; LR represents the early apoptotic cells; UR represents the late apoptotic cells; UL represents damaged cells and cell debris.
(B) Percentage of apoptosis in A549 cells. […]

c-KIT1 = experiment: CD melting, DNA stabilization; type: binding; settings: 5 µM DNA, 20 µM BMPQ-1, 10 mM Tris-HCl, 50 mM KCl, pH 7.4
Experimental: (§1) CD studies were performed on a Chirascan circular dichroism spectrophotometer (Jasco, Easton, MD, USA). A quartz cuvette with a 1 mm path length was used to record the spectra over a wavelength range of 220–320 nm with a 1 nm bandwidth. All the samples were prepared in buffer containing 10 mM Tris–HCl pH 7.4, 100 mM KCl. To ensure the concentrations of G-quadruplex units to be 20 μM, multiple G-quadruplexes forming oligonucleotides with different concentrations were used (TTA (G1) 20 μM, TTA45 (G2) 10 μM, TTA69 (G3) 6.67 μM, TTA93 (G4) 5 μM, TTA117 (G5) 4 μM, TTA141 (G6) 3.33 μM). The DNA samples were heated at 95°C for 5 min and cooled down slowly to room temperature. 20, 40 and 60 μM BMPQ-1 were mixed with DNAs separately. Melting curves were measured at 295 nm and the range of temperature was 4–95°C.

[3] = test system: c-KIT1 (DNA, G4) AGGGAGGGCGCTGGGAGGAGGG; experiment: CD melting; settings: 50 mM K+; 10 mM Tris-HCl pH 7.4; 5 µM DNA, 20 µM compound
TTA69 = experiment: CD melting, DNA stabilization; type: binding, human; settings: 5 µM DNA, 20 µM BMPQ-1, 10 mM Tris-HCl, 50 mM KCl, pH 7.4
Experimental: as §1

[4] = test system: TTA57/T5 (DNA, G4) GGGTTAGGGTTAGGGTTAGGGTTATTATTATTATTAGGGTTAGGGTTAGGGTTAGGG; experiment: fluorescence titration; settings: 100 mM K+ (KCl) plus potassium phosphate; 10 mM K2HPO4/KH2PO4 pH 7.0; 3 µM compound, DNA 0-10 µM; weaker than TTA45
[5] = test system: c-MYC Pu22 (DNA, G4) TGAGGGTGGGTAGGGTGGGTAA; experiment: ligand fluorescence enhancement; settings: 100 mM K+ (KCl) plus potassium phosphate; 10 mM K2HPO4/KH2PO4 pH 7.0; 3 µM compound, 4 µM DNA; enhancement below 3-fold
A549 cells [6] = experiment: Cell cycle analysis by flow cytometry (PI); type: cell-based, human; settings: A549, 3 μM, 24 h; control 10.4%
Experimental: A549 cells treated with BMPQ-1 were harvested and washed in PBS and fixed with 70% ethanol at 4°C overnight. Then, the cells were centrifuged and re-suspended in a staining solution (50 μg/mL propidium iodide (PI), 75 KU/ml RNase A in PBS) for 30 min at room temperature in the dark. The cells were analyzed by flow cytometer (BD FacsAria, USA). For each analysis, 2.0 × 10^4 events were collected.
Figure S9. BMPQ-1 induced A549 cell cycle arrest. (A) The cell cycle analysis of A549 cells after 24 h treatment with BMPQ-1. The cells were collected and stained with propidium iodide (PI). (B) Percentage of A549 cells in different phases of the cell cycle. […]
different from the control. […]

TTA45 [7] = experiment: FRET melting assay, stabilization of TTA45; type: binding, human; settings: 0.5 µM TTA45, 10 mM K2HPO4/KH2PO4, 100 mM KCl, pH 7.0
Experimental: Based on the conventional G-quadruplex ligand design ([46]), ∼400 compounds were selected from Chinese National Compound library of Peking University (PKU-CNCL). These compounds were evaluated for their ability to bind to TTA45 by Fluorescence Resonance Energy Transfer (FRET) assay (Supplementary Tables S1 and S2) ([47]). […] Compounds 21-38 were purchased to study their binding with TTA45 by FRET (Supplementary Table S3). […] page 4: Table S2. Stabilization of TTA45 as determined by FRET assays (continued). Compounds Structures ΔTm/°C Compounds Structures ΔTm/°C 23 10.3 25 14.6 […] OH 24 […] KCl, pH 7.0) was determined by FRET procedure, and Tm/°C were derived by their difference. The concentration of compounds 21-26 were 20 μM , and other compounds were 50 μM. FRET assay was carried out on the Real-Time PCR 3.2 machine (Analytik Jena, Germany). The total reaction volume was 20 μL with 0.5 μM of oligonucleotide labelled with FAM at the 3' end and TAMRA at 5' end in 10 mM K2HPO4/KH2PO4 (pH 7.0) containing 100 mM KCl. […] Then compounds with various concentrations were added into the DNA samples.

[8] = test system: TTA43 (DNA, G4) GGGTTAGGGTTAGGGTTAGGGTGGGTTAGGGTTAGGGTTAGGG; experiment: fluorescence titration; settings: 100 mM K+ (KCl) plus potassium phosphate; 10 mM K2HPO4/KH2PO4 pH 7.0; 3 µM compound, DNA 0-10 µM; weaker than TTA45

SMILES: Cc1ccc(Cn2cc3c(-c4ccc5c(c4)OCO5)nnc-3c3cc4c(cc32)OCO4)cc1 [BMPQ-1]
- ΔTm (°C) TTA45 (TTA45 [1]): 14.6 °C
- ΔTm (°C) Duplex (Duplex): 1.8 °C
- population of apoptotic cells (A549 cells [2]): approximately 60%
- ΔTm (°C) c-KIT1 (c-KIT1): 6.6 °C
- ΔTm [3]: 6.6 °C
- ΔTm (°C) TTA69 (TTA69): 13.8 °C
- binding [4]: yes
- binding [5]: weak
- percentage of G2/M phase (A549 cells [6]): 17.8%
- ΔTm/°C, TTA45 stabilization by FRET (Table S3) (TTA45 [7]; 20 µM compounds): 16.09 ± 1.79 °C
- ΔTm/°C, stabilization of TTA45 by FRET (Table S2) (TTA45 [7]; compounds 21-26 20 µM): 16.1 °C
- binding [8]: yes
